# Results published in PMC10761396, “Evaluation of new alternative methods for the identification of estrogenic, androgenic and steroidogenic effects: a comparative in vitro/in silico study” (Archives of Toxicology, 2023).
# Where two headings read alike, the source gives them in different places.
# Tests used:
# AR = target: T1, AR (Homo sapiens, UniProt P10275); test: (anti-)AR CALUX receptor transactivation assay; type: cell-based; design: expressed in transfected cells; host or cells: CALUX cells (U2-OS is named only for the cytotoxicity CALUX)
# T1 sequence (P10275 1-920): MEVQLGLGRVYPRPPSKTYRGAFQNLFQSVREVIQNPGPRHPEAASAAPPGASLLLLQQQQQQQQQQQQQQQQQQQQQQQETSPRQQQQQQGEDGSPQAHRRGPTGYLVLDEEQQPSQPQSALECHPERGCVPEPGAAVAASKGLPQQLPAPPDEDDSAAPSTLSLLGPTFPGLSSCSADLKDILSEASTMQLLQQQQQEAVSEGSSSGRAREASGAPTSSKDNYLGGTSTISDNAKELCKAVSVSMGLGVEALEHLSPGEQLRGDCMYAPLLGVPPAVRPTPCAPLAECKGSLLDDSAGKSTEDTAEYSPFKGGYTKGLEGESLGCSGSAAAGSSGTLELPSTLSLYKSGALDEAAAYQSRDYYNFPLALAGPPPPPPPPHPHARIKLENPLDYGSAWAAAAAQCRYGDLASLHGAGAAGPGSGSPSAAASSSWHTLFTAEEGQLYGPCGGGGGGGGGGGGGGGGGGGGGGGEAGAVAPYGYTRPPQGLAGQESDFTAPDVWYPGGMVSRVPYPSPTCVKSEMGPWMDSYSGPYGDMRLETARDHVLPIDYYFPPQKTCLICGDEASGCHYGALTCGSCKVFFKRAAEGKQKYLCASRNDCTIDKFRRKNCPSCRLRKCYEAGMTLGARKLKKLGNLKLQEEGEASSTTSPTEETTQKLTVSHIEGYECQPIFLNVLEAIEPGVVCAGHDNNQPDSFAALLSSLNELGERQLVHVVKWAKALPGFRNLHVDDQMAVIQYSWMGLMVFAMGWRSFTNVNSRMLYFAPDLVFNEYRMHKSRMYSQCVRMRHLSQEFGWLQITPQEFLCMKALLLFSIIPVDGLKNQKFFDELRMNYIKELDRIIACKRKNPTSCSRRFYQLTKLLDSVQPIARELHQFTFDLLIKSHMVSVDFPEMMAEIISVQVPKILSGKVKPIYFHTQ
# Description: The human CALUX® assays were used to measure the impact of test compounds on estrogen and androgen pathways. […] Chemicals can activate (or inactivate, in the case of an antagonistic activity) a ligand-specific pathway by binding to the receptor (ER, AR), after which the receptor-ligand complex binds to specific DNA REs […], resulting in increased (or decreased) cellular expression of a marker protein (e.g., luciferase).
# Chemicals were dissolved and diluted in DMSO. […] The cytotoxicity of each test chemical was assessed using the U2-OS based cytotoxicity CALUX bioassay. Concentrations causing >20% reduction of luminescence were considered cytotoxic. […] Luciferase production was quantified by measuring luminescence following addition of luciferin. For antagonist assays, a fixed concentration of receptor agonist was co-incubated with a range of concentrations of the test chemical. […] For the AR assays, dihydrotestosterone was the positive control for agonistic effects and flutamide was the positive control for antagonist effects.
# Each test chemical was tested in triplicates in two independent experiments.
# aromatase = test: ToxCast aromatase assays (TOX21_Aromatase_Inhibition) and final ToxCast call; type: cell-based; details: for Final "true" call (ToxCast) Aromatase inhibition: from ToxCast assays; for ToxCast result: aromatase overall ToxCast call
# Text: The performance of different in silico models for ED effects tends to be evaluated on single model for a single effect, such as ER or AR binding, agonism or antagonism (normally by the developer), or a limited number of models using multiple chemicals (Weyrich et al. [2022]). Multi-organisation collaborations have also evaluated multiple models for a specific effect e.g. ER (Mansouri et al. [2016]) and AR (Mansouri et al. [2020]) effects. Therefore, we have conducted a side-by-side comparison of multiple different in silico models covering three pathways in ED, namely ER, AR and aromatase inhibition and compared these with ToxCast-derived final calls, as well as with results from in vitro assays. The efficiency of the in silico models was evaluated as a metric for the ability of the in silico model to generate concrete predictions. […] In vivo data were available for some but not all chemicals; therefore, an evaluation of the performance of the methods was made by comparing the derived overall calls from in silico models with those from the ToxCast database. The final call for each chemical evaluated in the ToxCast assays was made by considering the active-flagged assays and the corresponding cytotoxicity levels, the ToxCast Pathway Model (Browne et al. [2015]) and the CERAPP Potency Level (Mansouri et al. [2016]) for ER effects and the ToxCast Pathway Model (Kleinstreuer et al. [2017]) for AR effects (see Online Resource 1 Supplementary Tables 2, 4 and 6 for the outcome of the ER, AR and aromatase ToxCast assays, additional literature and final calls for each chemical and target).
# Aromatase represents only one enzyme involved in steroidogenesis (the conversion of androgens to oestrogens); therefore, the aromatase assay detects effects on 17β-oestradiol production only. […] It is a cell-based assay in which MCF-7 cells are incubated with the test chemical for 24 h before measuring aromatase activities indirectly via a luciferase-based reporter endpoint which is dependent on the binding of the oestradiol–ER complex to the oestrogen response element. A decrease in luciferase activity can occur as a result of direct inhibition of aromatase (preventing the production of oestradiol) or by preventing oestradiol from binding to the ER and thus the binding to the oestrogen RE which initiates the production of luciferase (Lui et al. [2008]).
# ER = tested on: ER; design: method as in US EPA ToxCast; details: ref US EPA ToxCast, cited from earlier work; for ToxCast 1: (Active assays), ER assay listed as active: each listed assay name = active-flagged assay
Compound,"LEC, AR antagonism (AR) [µM]","Final ""true"" call (ToxCast) Aromatase inhibition (aromatase)","ToxCast 1: (Active assays), positive/total ER assays (ER)",ToxCast conclusion from assays result (ER),outcome in the AR transactivation assay (AR),ToxCast result (aromatase),"ToxCast 1: (Active assays), ER assay listed as active (ER; assay TOX21_ERa_BLA_Antagonist_ratio)","ToxCast 1: (Active assays), ER assay listed as active (ER; assay TOX21_ERa_BLA_Antagonist_viability)",ToxCast 1: (Comments) (ER; for the assay named in the same line)
"CC(C)(C)CC(C)(C)c1ccc(O)cc1 [4-TO, 4-tert-octylphenol]",0.44,Inconclusive,20/21 positive,Endocrine Disruption Potential.Significant Estrogen Receptor activity seen,,,,,
"CCCCN(CCCC)c1ccc(C(=O)c2ccccc2C(=O)O)c(O)c1 [DBABA, 2-[4-(dibutylamino)-2-hydroxybenzoyl]benzoic acid]",,Negative,2/6 positive,Endocrine Disruption Potential.Significant Estrogen Receptor activity seen,negative,Negative,TOX21_ERa_BLA_Antagonist_ratio,TOX21_ERa_BLA_Antagonist_viability,
"O=c1c(-c2ccc(O)cc2)coc2cc(O)ccc12 [Daidzein, daidzein]",,Negative,,Endocrine Disruption Potential.Significant Estrogen Receptor activity seen,negative,Negative,,,
"C[C@]12CCC(=O)C[C@@H]1CC[C@@H]1[C@@H]2CC[C@@]2(C)[C@H]1CC[C@]2(C)O [Mestanolone, mestanolone, reference compound]",,Negative,2/6 positive,Endocrine Disruption Potential.Significant Estrogen Receptor activity seen,,Negative,,,High active
